The structures appear in SMILES notation.

This series in a line: method code SF, from Rulke, H.; Friedel, A.; Martin, E.; Kottke, K.; Grafe, I.; Kuhmstedt, H. (1991). Investigations on the acidity ond partition properties of 1-phenyl-5-mercaptotetrazoles. Pharmazie, 46(6)456-457.
The term logP denotes the decadic logarithm of the partition coefficient of the neutral form, usually between octanol and water. A higher logP goes with a more lipophilic compound. Compound `S=c1[nH]nnn1-c1ccc(Cl)cc1` had a logP of 2.09.
The figure for `S=c1[nH]nnn1-c1ccccc1I` is 3.14; for `S=c1[nH]nnn1-c1ccc2ccccc2c1` it is 2.63.
The result for `Cc1cccc(-n2nn[nH]c2=S)c1` reads 2.29; that for `S=c1[nH]nnn1-c1cccc(Cl)c1`, 2.34.
The result for `O=[N+]([O-])c1ccc(-n2nn[nH]c2=S)cc1` reads 1.99; that for `S=c1[nH]nnn1-c1ccc(Cl)c(Cl)c1`, 2.68; that for `S=c1[nH]nnn1-c1cccc(Br)c1`, 2.39.
In the case of `S=c1[nH]nnn1-c1ccc(Cl)cc1Cl`, the logP came to 2.89.
With `S=c1[nH]nnn1-c1cccc(Cl)c1Cl`, the logP came out at 2.41.
`S=c1[nH]nnn1-c1ccc(Br)cc1` yielded a logP of 2.54.

Source of the values: the SangsterLogP compilation.
